Assay results taken from ChEMBL document CHEMBL2429768, “Eco-friendly synthesis and antimicrobial activities of substituted-5-(1H-indol-3-yl)methylene)-2,2-dimethyl-1,3-dioxane-4,6-dione derivatives” (2013).
Values after ≈ are worked out from the molar mass of the structure shown.

How the values were obtained:
Type in all cases: functional
[1] = system: Fusarium oxysporum; test: Antifungal activity against Fusarium oxysporum at 300 ug/ml after 72 hrs by agar well diffusion method; settings: read-out: DIZ
[2] = system: Aspergillus niger; test: Antifungal activity against Aspergillus niger at 500 ug/ml after 72 hrs by agar well diffusion method; settings: read-out: DIZ
[3] = system: Klebsiella pneumoniae; test: Antibacterial activity against Klebsiella pneumoniae after 24 hrs by agar well diffusion method
[4] = system: Bacillus subtilis; test: Antibacterial activity against Bacillus subtilis after 24 hrs by agar well diffusion method
[5] = system: Escherichia coli; test: Antibacterial activity against Escherichia coli ATCC 8739 at 50 ug/ml after 24 hrs by agar well diffusion method; settings: ATCC 8739, 24 h, read-out: DIZ
[6] = system: Rhizoctonia solani; test: Antifungal activity against Rhizoctonia solani at 500 ug/ml after 72 hrs by agar well diffusion method; settings: read-out: DIZ
[7] = system: Aspergillus niger; test: Antifungal activity against Aspergillus niger after 72 hrs by agar well diffusion method
[8] = system: Escherichia coli; test: Antibacterial activity against Escherichia coli ATCC 8739 at 100 ug/ml after 24 hrs by agar well diffusion method; settings: ATCC 8739, 24 h, read-out: DIZ
[9] = system: Aspergillus flavus; test: Antifungal activity against Aspergillus flavus at 200 ug/ml after 72 hrs by agar well diffusion method; settings: read-out: DIZ
[10] = system: Escherichia coli; test: Antibacterial activity against Escherichia coli ATCC 8739 at 200 ug/ml after 24 hrs by agar well diffusion method; settings: ATCC 8739, 24 h, read-out: DIZ
[11] = system: Fusarium oxysporum; test: Antifungal activity against Fusarium oxysporum at 100 ug/ml after 72 hrs by agar well diffusion method; settings: read-out: DIZ
[12] = system: Rhizoctonia solani; test: Antifungal activity against Rhizoctonia solani at 300 ug/ml after 72 hrs by agar well diffusion method; settings: read-out: DIZ
[13] = system: Staphylococcus aureus; test: Antibacterial activity against Staphylococcus aureus ATCC 6538 at 300 ug/ml after 24 hrs by agar well diffusion method; settings: ATCC 6538, 24 h, read-out: DIZ
[14] = system: Staphylococcus aureus; test: Antibacterial activity against Staphylococcus aureus ATCC 6538 at 200 ug/ml after 24 hrs by agar well diffusion method; settings: ATCC 6538, 24 h, read-out: DIZ
[15] = system: Staphylococcus aureus; test: Antibacterial activity against Staphylococcus aureus ATCC 6538 at 100 ug/ml after 24 hrs by agar well diffusion method; settings: ATCC 6538, 24 h, read-out: DIZ
[16] = system: Bacillus subtilis; test: Antibacterial activity against Bacillus subtilis at 100 ug/ml after 24 hrs by agar well diffusion method; settings: read-out: DIZ
[17] = system: Aspergillus niger; test: Antifungal activity against Aspergillus niger at 200 ug/ml after 72 hrs by agar well diffusion method; settings: read-out: DIZ
[18] = system: Staphylococcus aureus; test: Antibacterial activity against Staphylococcus aureus ATCC 6538 after 24 hrs by agar well diffusion method; settings: ATCC 6538, 24 h
[19] = system: Aspergillus flavus; test: Antifungal activity against Aspergillus flavus at 500 ug/ml after 72 hrs by agar well diffusion method; settings: read-out: DIZ
[20] = system: Rhizoctonia solani; test: Antifungal activity against Rhizoctonia solani at 100 ug/ml after 72 hrs by agar well diffusion method; settings: read-out: DIZ
[21] = system: Klebsiella pneumoniae; test: Antibacterial activity against Klebsiella pneumoniae at 50 ug/ml after 24 hrs by agar well diffusion method; settings: read-out: DIZ
[22] = system: Aspergillus flavus; test: Antifungal activity against Aspergillus flavus after 72 hrs by agar well diffusion method
[23] = system: Escherichia coli; test: Antibacterial activity against Escherichia coli ATCC 8739 at 500 ug/ml after 24 hrs by agar well diffusion method; settings: ATCC 8739, 24 h, read-out: DIZ
[24] = system: Rhizoctonia solani; test: Antifungal activity against Rhizoctonia solani at 200 ug/ml after 72 hrs by agar well diffusion method; settings: read-out: DIZ
[25] = system: Staphylococcus aureus; test: Antibacterial activity against Staphylococcus aureus ATCC 6538 at 500 ug/ml after 24 hrs by agar well diffusion method; settings: ATCC 6538, 24 h, read-out: DIZ
[26] = system: Aspergillus niger; test: Antifungal activity against Aspergillus niger at 100 ug/ml after 72 hrs by agar well diffusion method; settings: read-out: DIZ
[27] = system: Fusarium oxysporum; test: Antifungal activity against Fusarium oxysporum at 500 ug/ml after 72 hrs by agar well diffusion method; settings: read-out: DIZ
[28] = system: Rhizoctonia solani; test: Antifungal activity against Rhizoctonia solani at 50 ug/ml after 72 hrs by agar well diffusion method; settings: read-out: DIZ
[29] = system: Escherichia coli; test: Antibacterial activity against Escherichia coli ATCC 8739 after 24 hrs by agar well diffusion method; settings: ATCC 8739, 24 h
[30] = system: Staphylococcus aureus; test: Antibacterial activity against Staphylococcus aureus ATCC 6538 at 50 ug/ml after 24 hrs by agar well diffusion method; settings: ATCC 6538, 24 h, read-out: DIZ
[31] = system: Aspergillus flavus; test: Antifungal activity against Aspergillus flavus at 100 ug/ml after 72 hrs by agar well diffusion method; settings: read-out: DIZ
[32] = system: Klebsiella pneumoniae; test: Antibacterial activity against Klebsiella pneumoniae at 500 ug/ml after 24 hrs by agar well diffusion method; settings: read-out: DIZ
[33] = system: Rhizoctonia solani; test: Antifungal activity against Rhizoctonia solani after 72 hrs by agar well diffusion method
[34] = system: Fusarium oxysporum; test: Antifungal activity against Fusarium oxysporum at 50 ug/ml after 72 hrs by agar well diffusion method; settings: read-out: DIZ
[35] = system: Aspergillus flavus; test: Antifungal activity against Aspergillus flavus at 300 ug/ml after 72 hrs by agar well diffusion method; settings: read-out: DIZ
[36] = system: Klebsiella pneumoniae; test: Antibacterial activity against Klebsiella pneumoniae at 200 ug/ml after 24 hrs by agar well diffusion method; settings: read-out: DIZ
[37] = system: Aspergillus niger; test: Antifungal activity against Aspergillus niger at 50 ug/ml after 72 hrs by agar well diffusion method; settings: read-out: DIZ
[38] = system: Bacillus subtilis; test: Antibacterial activity against Bacillus subtilis at 300 ug/ml after 24 hrs by agar well diffusion method; settings: read-out: DIZ
[39] = system: Escherichia coli; test: Antibacterial activity against Escherichia coli ATCC 8739 at 300 ug/ml after 24 hrs by agar well diffusion method; settings: ATCC 8739, 24 h, read-out: DIZ
[40] = system: Bacillus subtilis; test: Antibacterial activity against Bacillus subtilis at 50 ug/ml after 24 hrs by agar well diffusion method; settings: read-out: DIZ
[41] = system: Bacillus subtilis; test: Antibacterial activity against Bacillus subtilis at 500 ug/ml after 24 hrs by agar well diffusion method; settings: read-out: DIZ
[42] = system: Fusarium oxysporum; test: Antifungal activity against Fusarium oxysporum after 72 hrs by agar well diffusion method
[43] = system: Aspergillus niger; test: Antifungal activity against Aspergillus niger at 300 ug/ml after 72 hrs by agar well diffusion method; settings: read-out: DIZ
[44] = system: Klebsiella pneumoniae; test: Antibacterial activity against Klebsiella pneumoniae at 300 ug/ml after 24 hrs by agar well diffusion method; settings: read-out: DIZ
[45] = system: Fusarium oxysporum; test: Antifungal activity against Fusarium oxysporum at 200 ug/ml after 72 hrs by agar well diffusion method; settings: read-out: DIZ
[46] = system: Aspergillus flavus; test: Antifungal activity against Aspergillus flavus at 50 ug/ml after 72 hrs by agar well diffusion method; settings: read-out: DIZ
[47] = system: Bacillus subtilis; test: Antibacterial activity against Bacillus subtilis at 200 ug/ml after 24 hrs by agar well diffusion method; settings: read-out: DIZ
[48] = system: Klebsiella pneumoniae; test: Antibacterial activity against Klebsiella pneumoniae at 100 ug/ml after 24 hrs by agar well diffusion method; settings: read-out: DIZ

CC1(C)OC(=O)C(=Cc2c[nH]c3ccc(Br)cc23)C(=O)O1
zone of inhibition at 300 µg/mL [1]: 21 mm
zone of inhibition at 500 µg/mL [2]: 26 mm
MIC [3]: 10 µg/mL (≈ 28.6 µM)
MIC [4]: 20 µg/mL (≈ 57.1 µM)
zone of inhibition at 50 µg/mL [5]: 10.4 mm
zone of inhibition at 500 µg/mL [6]: 32 mm
MIC [7]: 30 µg/mL (≈ 85.7 µM)
zone of inhibition at 100 µg/mL [8]: 15.5 mm
zone of inhibition at 200 µg/mL [9]: 13 mm
zone of inhibition at 200 µg/mL [10]: 16 mm
zone of inhibition at 100 µg/mL [11]: 14 mm
zone of inhibition at 300 µg/mL [12]: 24 mm
zone of inhibition at 300 µg/mL [13]: 19 mm
zone of inhibition at 200 µg/mL [14]: 15 mm
zone of inhibition at 100 µg/mL [15]: 12 mm
zone of inhibition at 100 µg/mL [16]: 11.5 mm
zone of inhibition at 200 µg/mL [17]: 15 mm
MIC [18]: 20 µg/mL (≈ 57.1 µM)
zone of inhibition at 500 µg/mL [19]: 24 mm
zone of inhibition at 100 µg/mL [20]: 15 mm
zone of inhibition at 50 µg/mL [21]: 11 mm
MIC [22]: 35 µg/mL (≈ 100 µM)
zone of inhibition at 500 µg/mL [23]: 32 mm
zone of inhibition at 200 µg/mL [24]: 19 mm
zone of inhibition at 500 µg/mL [25]: 27 mm
zone of inhibition at 100 µg/mL [26]: 11 mm
zone of inhibition at 500 µg/mL [27]: 31 mm
zone of inhibition at 50 µg/mL [28]: 10 mm
MIC [29]: 10 µg/mL (≈ 28.6 µM)
zone of inhibition at 50 µg/mL [30]: 8 mm
zone of inhibition at 100 µg/mL [31]: 10 mm
zone of inhibition at 500 µg/mL [32]: 34 mm
MIC [33]: 25 µg/mL (≈ 71.4 µM)
zone of inhibition at 50 µg/mL [34]: 10 mm
zone of inhibition at 300 µg/mL [35]: 17 mm
zone of inhibition at 200 µg/mL [36]: 20 mm
zone of inhibition at 50 µg/mL [37]: 7 mm
zone of inhibition at 300 µg/mL [38]: 17 mm
zone of inhibition at 300 µg/mL [39]: 23 mm
zone of inhibition at 50 µg/mL [40]: 7 mm
zone of inhibition at 500 µg/mL [41]: 25 mm
MIC [42]: 25 µg/mL (≈ 71.4 µM)
zone of inhibition at 300 µg/mL [43]: 19 mm
zone of inhibition at 300 µg/mL [44]: 25 mm
zone of inhibition at 200 µg/mL [45]: 17 mm
zone of inhibition at 50 µg/mL [46]: 5 mm
zone of inhibition at 200 µg/mL [47]: 13 mm
zone of inhibition at 100 µg/mL [48]: 16 mm
